pIC50, pKi: −log10 of the molar value.
Experiments:
[1] = target: T1, SHMT2 (Homo sapiens, UniProt P34897); test: SHMT2 coupled enzyme assay with MTHFD2 (NADH production); format: biochemical; settings: mean (standard error), at least three replicate assays
T1 construct: N-terminal His6-tagged SHMT2 (residues 30–504); made in house; host or cells: E. coli Rosetta (DE3)pLysS
T1 sequence (P34897 30-504): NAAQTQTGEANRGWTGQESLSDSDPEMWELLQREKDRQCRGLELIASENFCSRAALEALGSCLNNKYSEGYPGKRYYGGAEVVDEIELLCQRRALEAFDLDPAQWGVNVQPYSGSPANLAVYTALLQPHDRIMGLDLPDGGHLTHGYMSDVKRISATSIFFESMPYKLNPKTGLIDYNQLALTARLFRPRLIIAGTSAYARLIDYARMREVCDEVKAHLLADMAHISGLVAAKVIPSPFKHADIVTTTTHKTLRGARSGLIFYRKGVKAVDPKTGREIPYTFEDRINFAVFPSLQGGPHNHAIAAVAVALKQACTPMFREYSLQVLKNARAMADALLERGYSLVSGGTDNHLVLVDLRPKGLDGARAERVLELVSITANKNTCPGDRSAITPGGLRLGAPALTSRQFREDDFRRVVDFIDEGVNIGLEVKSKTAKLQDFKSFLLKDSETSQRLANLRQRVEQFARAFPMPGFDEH
Experimental: N-terminal His6-tagged SHMT2 (residues 30–504) and full-length MTHFD2 were expressed in Rosetta (DE3)pLysS cells. One liter cultures were grown in LB media with 100 mg/mL ampicillin and 35 mg/mL chloramphenicol at 37 °C until the OD600 was 0.6. […] The cells were pelleted and resuspended in 25 mL of 25 mM Tris–HCl, pH 7.5, 300 mM NaCl, and 5 mM β-Me. To lyse the cells, 40 mg lysozyme and 8 U DNAse I were added followed by incubation on ice for 15 min. The cells were then lysed by emulsification.
Purification of His-SHMT2 and His-MTHFD2 was by Ni-affinity chromatography (above). For further purification of His-SHMT2, pyridoxal 5′-phosphate (PLP) was added (3-fold excess to His-SHMT2) followed by incubation for 16–18 h. Further purification was by size exclusion chromatography on a Superdex 200 16/60 column (GE Healthcare) with monitoring of PLP absorbance at 435 nm. Purified His-SHMT2 was stored in 20 mM sodium phosphate buffer, pH 7.5, 100 mM potassium chloride, 0.2 mM EDTA, and 5 mM β-ME. To further purify MTHFD2, size exclusion chromatography was performed using a Superdex 200 16/60 column (GE Healthcare). His-MTHFD2 was stored in 50 mM Tris–HCl buffer, pH 7.5, 250 mM sodium chloride, 5% glycerol, and 0.5 mM tris(2-chloroethyl) phosphate (TCEP).
Kinetic measurements were recorded in triplicate in a UV-transparent 96-well plate (Costar 3635) at 298 nm using a BioTek Synergy Neo2 Plate Reader. Initial slopes were graphed against inhibitor concentrations and fit to a three-parameter nonlinear regression to calculate IC50 values for each compound (GraphPad Prism 8.0). […] SHMT2 activity was assayed by monitoring NADH production with a coupled assay including 500 nM His-SHMT2 and 10 μM His-MTHFD2 (1:200 molar ratio His-SHMT2/His-MTHFD2). NADH production by His-MTHFD2 was monitored by fluorescence at 470 nm with excitation at 360 nm (Synergy Neo2 Biotek plate reader). Inhibition constants (Ki’s) were calculated from the IC50 values using the equation Ki = IC50/([S]/KM + 1) and the Km and substrate concentration for THF. The THF concentration in the reaction was 50 mM.

[2] = tested on: SHMT2 (mitochondrial C1 metabolism) in KB tumor cells; test: Targeted metabolomics flux analysis with [2,3,3-2H]serine in KB cells; format: cell-based, human; settings: 0.1 μM compound, 250 μM [2,3,3-2H]serine, versus vehicle-treated cells
Excerpt: Serine is catabolized in the mitochondria via SHMT2, which converts serine to glycine and 5,10-methylene THF, the latter of which is metabolized by MTHFD2 to 10-CHOTHF and by MTHFD1L to formate (Figure 7).
The cells were processed for liquid chromatography–mass spectrometry (LC–MS) analysis of total serine and glycine, and deuterated serine (M + 3, M + 2, M + 1, and M + 0 serine, where M + n represents species with n deuterium atoms) and glycine (M + 1 and M + 0) isotopomers. The results are shown in Figure 8 and are compared to those for control (vehicle-treated) cells (labeled “N/A”).
Figure 8 Metabolomics flux analysis with [2,3,3-^2H]serine to assay mitochondrial C1 metabolism via SHMT2. (A) A schematic of [2,3,3-^2H]serine metabolism is shown. Heavy (^2H) atoms in serine (colored circles) are metabolized via SHMT2 initially followed by MTHFD2 and MTHFD1L to formate. (B, C) Total serine and glycine and the distribution of the serine (M + n, n = 0−3) and glycine (n = 0 or 1) isotopomers are shown. The loss of M + 3 serine corresponding to the metabolism of [2,3,3-^2H]serine to M + 1 glycine is a direct measure of SHMT2 activity in the cells.[45] Experimental methods are described in the Experimental Section. Results are shown as mean values plus/minus standard deviations (n = 3). *P < 0.05; **P < 0.01. […]
KB cells (1 × 10[6]) were seeded in each of three 60 mm dishes in folate-, serine-, and glycine-free RPMI1640 supplemented with 10% DFBS, 1% penicillin/streptomycin, 2 mM L-glutamine, 285 μM serine, 130 μM glycine, and 2 nM leucovorin. […] The targeted metabolites were quantitatively determined using the AB Sciex QTRAP 6500 LC–MS/MS system. […] Isotopomers were detected using multiple reaction monitoring (MRM) at the positive ionization mode. […] Absolute metabolite concentrations were calculated from calibration curves and then normalized to total protein concentrations measured from the postextraction pellet (solubilized in 0.5 N NaOH) using the Folin-phenol method.[53] […] To correct for multiple comparisons, adjusted p values were determined using Holm’s method.

[3] = tested on: PC43-10 CHO cells (expresses only human RFC); settings: 96 h; mean (standard error); previously published; cited from earlier work
[4] = tested on: D4 CHO cells (expresses only human FRβ); settings: 96 h; mean (standard error); previously published; cited from earlier work

| Structure (SMILES) | pKi [1] | Increase in M + 3 serine [2] | pIC50 [3] | pIC50 [4] |
| --- | --- | --- | --- | --- |
| Nc1nc2sc(CCCc3ccc(C(=O)N[C@@H](CCC(=O)O)C(=O)O)cc3)cc2c(=O)[nH]1 [Compound 1] | 4.17 | 2–4 fold | < 6.00 | 6.95 |
| Nc1nc2sc(CCCc3ccc(C(=O)N[C@@H](CCC(=O)O)C(=O)O)c(F)c3)cc2c(=O)[nH]1 [Compound 6, (4-(3-(2-Amino-4-oxo-3,4-dihydrothieno[2,3-d]pyrimidin-6-yl)propyl)-2-fluorobenzoyl)-L-glutamic Acid] | 4.56 | 2–4 fold | – | – |

— article PMC10186366 (ACS Pharmacology & Translational Science, 2023)
